{"source": "patent US20260144769A1", "about": "“4-PHENYLBUTYRATE RESTORED GABA UPTAKE AND REDUCED SEIZURES IN SLC6A1 VARIANT-MEDIATED DISORDERS” (Vanderbilt University, priority 2022, published 2026)", "key": {"[1]": {"molecular_target": "GAT-1 E16X (Rattus norvegicus, UniProt P23978)", "experiment": "3H GABA uptake, HEK293T, mutant cDNA alone (\"homozygous\")", "type": "cell-based", "design": "with only 15 amino acids left in the protein peptide; expressed in transfected cells; host or cells: HEK293T cells", "details": "PBA 2 mM, 24 hrs", "experimental": "(§1) GABA uptake activity was measured by the high-throughput 3H radio-labeling GABA uptake on a liquid scintillator with QuantaSmart. […] HEK293T cells were transfected with the wildtype or the mutant GAT-1^YFP cDNAs alone for 48 hr. […] HEK293T cells were transfected with the wildtype GAT-1^YFP alone or in mixture of the wildtype or the mutant cDNAs for 48 hr. In the mixed condition, the ratio of the wildtype GAT-1 with pcDNA or the mutant cDNAs are 1:1 with the total cDNA amount of 0.5 μg. […] Both wt and the mutant were normalized to its own DMSO treated conditions. 966 stands for the wildtype treated with CI-966 (50 μM) while 711 stands for NNC-711 (35 μM). (N=4-7 different transfections. In FIG. 4A and FIG. 4B, *P<0.05, **P<0.01, ***p<0.001 vs. wt 0. In FIG. C and FIG. 4D, *P<0.05, **P<0.01, ***p<0.001 vs. its own DMSO treated. In FIG. 4C, ns stands for no significance. One-way analysis of variance (ANOVA) and Newman-Keuls test. Values were expressed as mean±S.E.M.\n(§2) The plasmid cDNA encoding enhanced yellow fluorescent protein (EYFP)-tagged rat GAT-1 has been previously described. […]\n(§3) Briefly, cells were cultured in […] dishes for 3 days before the GABA uptake experiment in DMEM with 10% fetal bovine serum and 1% penicillin/streptomycin. […] Glacial acetic acid was added, and lysates were then determined on a liquid scintillator with QuantaSmart. […]"}, "[2]": {"molecular_target": "T1, wildtype GAT-1 + GAT-1(E16X) (Rattus norvegicus, UniProt P23978)", "T1 construct": "expressed in transfected cells; host or cells: HEK293T cells", "experiment": "3H GABA uptake, HEK293T, mixture of wildtype and mutant cDNAs (\"heterozygous\")", "type": "cell-based", "details": "wildtype:E16X cDNAs 1:1; PBA 2 mM, 24 hrs", "experimental": "as §1, §2, §3"}, "[3]": {"test_system": "GAT-1", "experiment": "GAT-1 protein expression in brain regions of SLC6A1^+/A288V heterozygous mice", "type": "in vivo, mouse", "details": "A288V het; cerebellum; PBA 100 mg/kg, 7 days", "text": "FIGS. 8C-D show integrated density values (IDVs) for total GAT-1 from wild-type and het KI were normalized to the Na^+/K^+ ATPase or anti-glyceraldehyde-3-phosphate dehydrogenase (GAPDH) loading control (LC) in each specific brain region and plotted. N=4 from 4 pairs of mice. […] The vehicle treated in each brain region was taken as 1. N=4 from 4 pairs of mice for FIG. 8C, FIG. 8D, FIG. 8G and FIG. 8H, Values were expressed as mean±S.E.M. One way ANOVA or unpaired t test.\nThe working solution was stored at 4° C.\nData were expressed as mean±SEM. Proteins were quantified by Odyssey software and data were normalized to loading controls and then to the wildtype subunit protein, which was arbitrarily taken as 1 in each experiment. Fluorescence intensities from confocal microscopy experiments were determined using MetaMorph imaging software, and the measurements were carried out in ImageJ. For statistical significance, one-way or two-way analysis of variance (ANOVA) with post hoc Dunnett or Newman-Keuls test were used. In some cases, unpaired t-test or one sample t-test was performed (GraphPad Prism, La Jolla, CA), and statistical significance was taken as p<0.05."}, "[4]": {"details": "cited from earlier work"}}}
{"compound": "O=C(O)CCCc1ccccc1", "note": "[PBA, 4-phenylbutyric acid]", "values": [{"measurement": "GABA uptake normalized to its own DMSO treated condition", "setting": "[1]", "result": "0.813±0.06"}, {"measurement": "GABA uptake normalized to its own DMSO treated condition", "setting": "[2]", "result": "1.149±0.025"}, {"measurement": "GAT-1 expression vs. same brain region of vehicle treated mice taken as 1", "setting": "[3]", "result": "1.045±0.028"}, {"measurement": "oral bioavailability", "setting": "[4]", "result": "orally bioavailable"}]}
